The values that follow come from PubChem BioAssay (NCI).

Structures are written as SMILES. Values joined by “and” are separate entries in the source; they are usually repeats but may differ in a detail not shown here. Equal entries are not always repeated.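 Tested at 5 concentrations; 48 h exposure; 96-well plates; endpoints linearly interpolated, else capped at highest concentration. Here, GI50 denotes the concentration required for 50% inhibition of growth. TGI: concentration producing complete growth inhibition.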

Some test systems named below: IGROV1 ovarian; 786-0 renal; KM20L2 colon; COLO 205 colon; SF-268 CNS; HOP-18 NSCLC; HCT-116 colon; SW-620 colon; LOX IMVI melanoma; MCF7 breast.
What all share (experiment): NCI-60 cell line screen, 48 h

In the case of `CN(C)CC(/C(Cc1ccccc1)=N\NC(=O)C[n+]1ccccc1)c1ccccc1` (centres undefined), the TGI in the experiment with IGROV1 ovarian, with 786-0 renal, in the experiment on KM20L2 colon, in the experiment with COLO 205 colon, in the experiment with SF-268 CNS and with HOP-18 NSCLC was greater than 100 µM throughout. Besides, in the experiment on HCT-116 colon, the TGI was greater than 100 µM.

Regarding `[O-]/[N+](=C\c1ccccc1)[C@H](COCc1ccccc1)c1ccccc1`, the TGI in the experiment with IGROV1 ovarian, in the experiment on 786-0 renal, in the experiment on KM20L2 colon, in the experiment with SW-620 colon, in the experiment on COLO 205 colon and in the experiment on LOX IMVI melanoma was greater than 100 µM in each case. In addition, the TGI with SF-268 CNS is greater than 100 µM; with HOP-18 NSCLC, 90.4 µM; in the experiment on HCT-116 colon, greater than 100 µM.

For `C1=C(c2ccccc2)CN(c2ccccc2)OC1`, the TGI in the experiment with IGROV1 ovarian, in the experiment with 786-0 renal, in the experiment with KM20L2 colon, with SW-620 colon, in the experiment with COLO 205 colon and in the experiment with LOX IMVI melanoma was greater than 100 µM each time. Moreover, the TGI in the experiment with SF-268 CNS was greater than 100 µM; in the experiment on HOP-18 NSCLC, 69.3 µM.

Take `CCOc1ccc2nc(NC(=O)C(=O)C(C(=O)c3ccccc3-c3ccccc3)C3OC(=O)c4ccccc43)sc2c1` (centres undefined): the TGI with IGROV1 ovarian was greater than 68 µM; in the experiment on 786-0 renal, 34.6 µM; in the experiment on KM20L2 colon, 54.6 µM; with SW-620 colon, 60.1 µM; in the experiment on MCF7 breast, greater than 100 µM; with COLO 205 colon, 37 µM. The TGI in the experiment with LOX IMVI melanoma is 39.4 µM; in the experiment with SF-268 CNS it was 79.5 µM; with HCT-116 colon, 33.7 µM.

With `Cc1ccc(S(=O)(=O)N/N=C/c2oc(-c3cccc([N+](=O)[O-])c3)c(-c3cccc([N+](=O)[O-])c3)c2[N+](=O)[O-])cc1`, the TGI is 91.2 µM in the experiment with IGROV1 ovarian; greater than 100 µM in the experiment on 786-0 renal; greater than 100 µM in the experiment with KM20L2 colon; greater than 100 µM with SW-620 colon; greater than 100 µM with COLO 205 colon; 33.5 µM in the experiment with LOX IMVI melanoma. The TGI in the experiment with SF-268 CNS is 66.7 µM; with HOP-18 NSCLC, greater than 100 µM; in the experiment on HCT-116 colon, greater than 100 µM.

Take `CC(=O)OCC1OC(Nc2[nH]c(=O)n(C)c(=O)c2-c2csc(N)n2)C(OC(C)=O)C(OC(C)=O)C1OC(C)=O` (centres undefined): the TGI in the experiment with IGROV1 ovarian, with 786-0 renal, in the experiment with KM20L2 colon, in the experiment on SW-620 colon, in the experiment with COLO 205 colon and in the experiment on LOX IMVI melanoma was greater than 100 µM in each case. In addition, the TGI with SF-268 CNS, with HOP-18 NSCLC and with HCT-116 colon was greater than 100 µM each time.

In the case of `OCCOc1ccc(-c2cc(-c3ccccn3)nc(-c3ccccn3)c2)cc1`, the TGI was greater than 100 µM in the experiment on IGROV1 ovarian; 13.9 µM with 786-0 renal; greater than 41.8 µM in the experiment with KM20L2 colon; greater than 100 µM in the experiment with SW-620 colon; greater than 100 µM in the experiment on MCF7 breast; 6.29 µM in the experiment with COLO 205 colon. Further, the TGI was 6.43 µM in the experiment with LOX IMVI melanoma, greater than 100 µM with SF-268 CNS, 5.59 µM in the experiment on HOP-18 NSCLC and greater than 43.7 µM in the experiment with HCT-116 colon.

As for `CCN(CC)CCNC(=O)c1ccccc1NC(=O)C(=O)Nc1ccccc1C(=O)NCCN(CC)CC`, the TGI was greater than 100 µM in the experiment on IGROV1 ovarian; 42.6 µM with 786-0 renal; greater than 100 µM in the experiment on KM20L2 colon; 42 µM with SW-620 colon; 35.8 µM in the experiment with COLO 205 colon; 73.6 µM in the experiment on LOX IMVI melanoma. The TGI with SF-268 CNS is greater than 100 µM; with HOP-18 NSCLC it was greater than 100 µM; in the experiment with HCT-116 colon it was 43.3 µM.

In the case of `O=C(O)CCCl`, the TGI with IGROV1 ovarian, with 786-0 renal, in the experiment with SW-620 colon, in the experiment with COLO 205 colon, in the experiment with LOX IMVI melanoma and in the experiment with SF-268 CNS was greater than 5000 µM throughout. The TGI with HOP-18 NSCLC and with HCT-116 colon was greater than 5000 µM each time.

Regarding `O=C(CSc1nnc(-c2ccc(N=Cc3ccc(Cl)cc3)cc2)o1)Nc1ccccc1Cl`, the TGI in the experiment on 786-0 renal, in the experiment with KM20L2 colon, with SW-620 colon, in the experiment on COLO 205 colon, with LOX IMVI melanoma and in the experiment with SF-268 CNS was greater than 100 µM in each case. Further, the TGI with HOP-18 NSCLC and in the experiment with HCT-116 colon was greater than 100 µM throughout.

Regarding `O=C(Nc1c(O)[nH]c(=S)[nH]c1=O)c1ccccn1`, the TGI with IGROV1 ovarian, with 786-0 renal, in the experiment with KM20L2 colon, with SW-620 colon, in the experiment on COLO 205 colon and in the experiment with LOX IMVI melanoma was greater than 100 µM throughout. The TGI in the experiment with SF-268 CNS, in the experiment on HOP-18 NSCLC and in the experiment with HCT-116 colon was greater than 100 µM throughout.

As to `S=c1sc2c(Cl)ncnc2n1-c1ccccc1`, the TGI in the experiment with IGROV1 ovarian came out at 28.2 µM; in the experiment on 786-0 renal, 29.2 µM; in the experiment on KM20L2 colon it was 34.2 µM; with SW-620 colon it was 35.1 µM; with COLO 205 colon, 29 µM; with LOX IMVI melanoma, 16.6 µM. In addition, the TGI in the experiment on SF-268 CNS worked out at 18.5 µM; in the experiment with HOP-18 NSCLC, 39.5 µM; in the experiment with HCT-116 colon it was 18.6 µM.

For `C=C1C(=O)OC2/C=C(\C)C(OC(C)=O)C3OC3C(C)(O)CC(OC(=O)/C(C)=C/C)C12` (centres undefined), the TGI is 35.7 µM in the experiment with IGROV1 ovarian; 16.4 µM in the experiment on 786-0 renal; 15.2 µM with KM20L2 colon; 1.89 µM in the experiment with SW-620 colon; 12.9 µM with COLO 205 colon; 30.4 µM with LOX IMVI melanoma. Moreover, the TGI with SF-268 CNS worked out at 30.2 µM; in the experiment on HOP-18 NSCLC, 23.5 µM; with HCT-116 colon it was 5.86 µM.

`CCC1(O)CC(OC2CC(N(C)C)C(OC3CC4OC5CC(=O)C(C)OC5OC4C(C)O3)C(C)O2)c2c(cc3c(c2O)C(=O)c2c(O)ccc(O)c2C3=O)C1C(=O)OC` (centres undefined): the GI50 in the experiment with KM20L2 colon is 0.00351 µM and 0.0075 µM; in the experiment with LOX IMVI melanoma, 0.00915 µM; in the experiment on HOP-18 NSCLC, 0.00875 µM and 0.0163 µM. Also, the TGI with KM20L2 colon was 0.356 µM and 0.0462 µM and 0.0889 µM; in the experiment with HOP-18 NSCLC, 0.0821 µM and 0.0764 µM; in the experiment on HCT-116 colon, 0.0238 µM and 0.126 µM and 0.0875 µM.
